Data published in patent US9101133B2, “Phenyl-substituted bicyclooctane-1,3-dione-derivatives” (BAYER INTELLECTUAL PROPERTY GMBH, priority 2010, dated 2015).

How the values were obtained:
ALOMY = assay: Herbicidal post-emergence action; format: in vivo; details: 80 g/ha, visual assessment after about three weeks, 100% = plants have died
Method: (§1) 2. Herbicidal Post-Emergence Action
(§2) • Seeds of monocotylidonous and dicotylidonous weed and crop plants are placed in sandy loam in wood fibre pots, covered with soil and cultivated in a greenhouse under good growth conditions. Two to three weeks after sowing, the test plants are treated at the one-leaf stage. The test compounds, formulated as wettable powders (WP), are then with a water application rate of 600 l/ha (converted), with 0.2% of wetting agent added, sprayed onto the green parts of the plants in different amounts. After the test plants have been kept in the greenhouse under optimum growth conditions for about three weeks, the effect of the preparations is assessed visually in comparison to untreated controls (herbicidal effect in percent: 100% effect=the plants have died, 0% effect=like control plants). Post-Emergence, 80 g/ha

AVEFA [1] = assay: Herbicidal post-emergence action; format: in vivo; details: 80 g/ha, visual assessment after about three weeks, 100% = plants have died
Method: as §1, §2

ECHCG = assay: Herbicidal post-emergence action; format: in vivo; details: 80 g/ha, visual assessment after about three weeks, 100% = plants have died
Method: as §1, §2

LOLMU = assay: Herbicidal post-emergence action; format: in vivo; details: 80 g/ha, visual assessment after about three weeks, 100% = plants have died
Method: as §1, §2

SETVI [2] = assay: Herbicidal post-emergence action; format: in vivo; details: visual assessment after about three weeks, 100% = plants have died; for herbicidal effect in percent, SETVI: 80 g/ha; for pest or weed control at 80 g/ha: 504 h, read-out: herbicidal effect in percent, SETVI
Method: as §1, §2

VERPE = assay: Herbicidal post-emergence action; format: in vivo; details: 80 g/ha, visual assessment after about three weeks, 100% = plants have died
Method: as §1, §2

[3] = system: larvae of the mustard beetle (Phaedon cochleariae); assay: Phaedon test (PHAECO spray treatment); format: in vivo; details: application rate of 500 g/ha; Chinese cabbage leaf discs sprayed; after 7 days
Method: Phaedon Test […] Spray Treatment Solvents: 78.0 parts by weight of acetone • • 1.5 parts by weight of dimethylformamide Emulsifier: 0.5 part by weight of alkylaryl polyglycol ether To produce a suitable preparation of active compound, one part by weight of active compound is mixed with the stated amounts of solvents and emulsifier, and the concentrate is diluted with emulsifier-containing water to the desired concentration. Discs of Chinese cabbage leaves (Brassica pekinensis) are sprayed with an active compound preparation of the desired concentration and, after drying, populated with larvae of the mustard beetle (Phaedon cochleariae).

[4] = system: green peach aphid (Myzus persicae); assay: Myzus test (MYZUPE spray treatment); format: in vivo; details: application rate of 500 g/ha; Chinese cabbage leaf discs sprayed; after 6 days
Method: Solvents: 78 parts by weight of acetone
• 1.5 parts by weight of dimethylformamide Emulsifier: 0.5 part by weight of alkylaryl polyglycol ether
To produce a suitable preparation of active compound, one part by weight of active compound is mixed with the stated amounts of solvents and emulsifier, and the concentrate is diluted with emulsifier-containing water to the desired concentration.
Discs of Chinese cabbage leaves (Brassica pekinensis) which are infested by all stages of the green peach aphid (Myzus persicae) are sprayed with an active compound preparation of the desired concentration.
After 6 days, the effect in % is determined 100% means that all aphids have been killed; 0% means that none of the aphids have been killed.

[5] = system: monocotylidonous and dicotylidonous weed and crop plants; assay: Herbicidal pre-emergence action; format: in vivo; details: 320 g/ha, visual assessment after three weeks, 100% = plants have died; for herbicidal effect in percent, ALOMY: ALOMY = Alopecurus myosuroides; for herbicidal effect in percent, AVEFA: AVEFA = Avena fatua; for herbicidal effect in percent, ECHCG: ECHCG = Echinochloa crus-galli; for herbicidal effect in percent, LOLMU: LOLMU = Lolium multiflorum; for herbicidal effect in percent, SETVI: SETVI = Setaria viridis; for herbicidal effect in percent, VIOTR: VIOTR = Viola tricolor
Text: 1. Herbicidal Pre-Emergence Action
• Seeds of monocotylidonous and dicotylidonous weed and crop plants are placed in sandy loam in wood fibre pots and covered with soil. The test compounds, formulated in the form of wettable powders (WP), are then, as an aqueous suspension with a water application rate of 600 l/ha (converted), with 0.2% of wetting agent added, applied to the surface of the covering soil in different amounts. • After the treatment, the pots are placed in a greenhouse and kept under good growth conditions for the test plants. The visual assessment of the emergence damage on the test plants is carried out after a trial period of three weeks by comparison with the untreated controls (herbicidal effect in percent: 100% effect=the plants have died, 0% effect=like control plants).

POLCO = assay: Herbicidal post-emergence action; format: in vivo; details: 80 g/ha, visual assessment after about three weeks, 100% = plants have died
Method: as §1, §2

APESV = assay: Herbicidal post-emergence action; format: in vivo; details: 100 g/ha, visual assessment after about three weeks, 100% = plants have died
Method: as §1
as §2, with “Post-Emergence, 80 g/ha” left out

PHAMI = assay: Herbicidal post-emergence action; format: in vivo; details: 100 g/ha, visual assessment after about three weeks, 100% = plants have died
Method: as §1
as §2, with “Post-Emergence, 80 g/ha” left out

POAAN = assay: Herbicidal post-emergence action; format: in vivo; details: 100 g/ha, visual assessment after about three weeks, 100% = plants have died
Method: as §1
as §2, with “Post-Emergence, 80 g/ha” left out

AVEFA [6] = assay: Herbicidal post-emergence action; format: in vivo; details: 100 g/ha, visual assessment after about three weeks, 100% = plants have died
SETVI [7] = assay: Herbicidal post-emergence action; format: in vivo; details: 504 h, visual assessment after about three weeks, 100% = plants have died, read-out: herbicidal effect in percent, SETVI

Structure (SMILES)	herbicidal effect in percent, ALOMY (ALOMY)	herbicidal effect in percent, AVEFA (AVEFA [1])	herbicidal effect in percent, ECHCG (ECHCG)	herbicidal effect in percent, LOLMU (LOLMU)	herbicidal effect in percent, SETVI (SETVI [2])	herbicidal effect in percent, AVEFA [5]	herbicidal effect in percent, ECHCG [5]	herbicidal effect in percent, LOLMU [5]	herbicidal effect in percent, SETVI [5]	further results
CCc1cc(C)cc(CC)c1C1C(=O)C2CC(CCC#N)CC2C1=O (mixture of isomers) [I-a-37]	100%	100%	100%	100%	100%	–	–	–	–	herbicidal effect in percent, VERPE (VERPE): 80%
CCc1cc(C)cc(CC)c1C1C(=O)C2CC(COC(=O)Nc3ccccc3)CC2C1=O (mixture of isomers) [I-a-44]	–	–	–	–	–	–	–	–	–	effect in % (beetle larvae killed) [3]: 100%
CCc1cc(C)cc(CC)c1C1C(=O)C2CC(COC(=O)NCc3ccccc3)CC2C1=O (mixture of isomers) [I-a-47]	–	–	–	–	–	–	–	–	–	effect in % (beetle larvae killed) [3]: 100%
CCc1cc(C)cc(CC)c1C1=C(OCc2ccccc2)C2CC(C=CC#N)CC2C1=O (mixture of isomers) [I-a-59]	–	–	–	–	–	–	–	–	–	effect in % (aphids killed) [4]: 100%
CCOC(=O)OC1=C(c2c(CC)cc(C)cc2CC)C(=O)C2CC(C=CC#N)CC12 (mixture of isomers) [I-c-22]	80%	100%	100%	–	100%	–	–	–	–	herbicidal effect in percent, VERPE (VERPE): 90%; effect in % (aphids killed) [4]: 100%
C=C1CC2C(=O)C(c3c(CC)cc(C)cc3CC)=C(OCc3ccccc3)C2C1 (stereo not drawn) [I-a-0, 3-(Benzyloxy)-2-(2,6-diethyl-4-methylphenyl)-5-methylene-4,5,6,6a-tetrahydropentalen-1(3aH)-one]	–	–	–	–	–	–	–	–	–	melting point: 87 to 88 °C
CCc1cc(C)cc(CC)c1C1C(=O)C2CC(C3OCCO3)CC2C1=O (stereo not drawn) [I-a-10]	100%	100%	100%	100%	100%	90%	100%	100%	100%	herbicidal effect in percent, ALOMY [5]: 100%; herbicidal effect in percent, VIOTR [5]: 90%
CCc1cc(C)cc(CC)c1C1=C(O)C2CC(C=NOC)CC2C1=O (stereo not drawn) [I-a-13, 5-(2,6-diethyl-4-methylphenyl)-6-hydroxy-4-oxo-1,2,3,3a,4,6a-hexahydropentalene-2-carbaldehyde O-methyloxime]	100%	100%	100%	100%	–	80%	–	100%	–	pest or weed control at 80 g/ha (SETVI [2]): 100%; herbicidal effect in percent, STEME ([5]; STEME = Stellaria media): 100%; herbicidal effect in percent, VERPE ([5]; VERPE = Veronica persica): 90%; herbicidal effect in percent, VIOTR [5]: 100%
CCc1cc(C)cc(CC)c1C1C(=O)C2CC(OC)CC2C1=O (stereo not drawn) [I-a-22]	100%	100%	100%	100%	100%	90%	100%	100%	100%	herbicidal effect in percent, ALOMY [5]: 100%
CCc1cc(C)cc(CC)c1C1C(=O)C2CC(O)CC2C1=O (stereo not drawn) [I-a-23]	70%	60%	100%	90%	100%	–	100%	–	90%	–
CCc1cc(C)cc(CC)c1C1C(=O)C2CC(COCOC)CC2C1=O (stereo not drawn) [I-a-40, 2-(2,6-diethyl-4-methylphenyl)-5-methoxymethoxymethyltetrahydropentalene-1,3-dione]	100%	90%	–	100%	–	–	–	–	–	herbicidal effect in percent, POLCO (POLCO): 100%; pest or weed control at 80 g/ha (SETVI [2]): 90%
CCc1cc(C)cc(CC)c1C1=C(OC(=O)C(C)(C)C)C2CC(/C=N/OC)CC2C1=O (stereo not drawn) [I-b-1, 2-(2,6-Diethyl-4-methylphenyl)-5-(methoxyimino)methyl-3-oxo-3,3a,4,5,6,6a-hexahydropentalen-1-yl 2,2-dimethylpropanoate]	100%	100%	100%	100%	–	90%	100%	100%	100%	pest or weed control at 80 g/ha (SETVI [2]): 100%; herbicidal effect in percent, ALOMY [5]: 100%; herbicidal effect in percent, VIOTR [5]: 90%
CCOC(=O)OC1=C(c2c(CC)cc(C)cc2CC)C(=O)C2CC(C(OC)OC)CC12 (stereo not drawn) [I-c-1, 2-(2,6-Diethyl-4-methylphenyl)-5-(dimethoxymethyl)-3-oxo-3,3a,4,5,6,6a-hexahydropentalen-1-yl ethyl carbonate]	–	–	–	–	–	–	–	–	–	herbicidal effect in percent, APESV (APESV): 100%; herbicidal effect in percent, PHAMI (PHAMI): 99%; herbicidal effect in percent, POAAN (POAAN): 85%; herbicidal effect in percent, AVEFA (AVEFA [6]): 80%; pest or weed control at 100 g/ha (SETVI [7]): 97%
